{"source": "paper PMC10244169", "about": "“Psychedelics promote plasticity by directly binding to BDNF receptor TrkB” (Nature Neuroscience, 2023)", "key": {"[1]": {"test_system": "spine density of neuronal cultures", "assay": "Spinogenesis in mature neuronal cultures (WT and Y433F^+/−)", "format": "cell-based, mouse", "parameters": "6d: Mean (spinogenesis, spine density) / 6e: Mean (spinogenesis, spine density): unit not given here", "method": "Spinogenesis experiments were performed similarly to previous studies[12],[13] with modifications. […] In a separate set of experiments to study the effects of extracellular BDNF and 5-HT2A activation, cultures were also pretreated for 10 min with TrkB.FC (200 ng ml^−1) or M100907 (100 nM), respectively. TrkB.FC and M100907 remained in the medium for the rest of the experiment. Twenty-four hours later, coverslips were fixed with 4% PFA, washed with PBS, incubated with blocking buffer (0.1% Triton X-100, 0.05% Tween-20, 10% normal donkey serum, 1% BSA and 0.1% gelatin in PBS) for 1 h at room temperature and then overnight with rabbit anti-MAP2 (Invitrogen, PA5-17646; 1:100) primary antibody at 4 °C. After washing with PBS, coverslips were incubated with CF568-conjugated donkey anti-rabbit (Biotium, 20098; 1:500) for 1 h at room temperature. Another round of PBS washes was followed by incubation with Alexa Fluor 647-conjugated phalloidin (Invitrogen, A22287; 1:40) overnight at 4 °C. Next, coverslips were briefly washed in phosphate buffer (PB) and mounted on slides with ProLong Glass Antifade Mountant (Invitrogen, P36982). We used a Zeiss LSM 880 confocal microscope with an AiryScan GaAsP detector equipped with a PlanApochromat 63×/1.4 NA objective. We used the BP 495–550 + LP 570 AiryScan filter and Zen Black in super-resolution mode for image acquisition. Pinhole size was adapted accordingly, and frame size was set to optimal. Sensors were set to continuous adjustment across the imaging sessions to ensure optimal sensor alignment and signal detection. Raw data were processed into AiryScan images with the autofilter mode on using Zen Blue. Finally, image analysis was performed in ImageJ by experimenters blinded for treatment and genotype. Spines were quantified in 15-µm-long dendrite sections."}, "TrkB": {"target": "T1, TrkB (Rattus norvegicus, UniProt Q63604)", "T1 construct": "expressed in transfected cells; host or cells: HEK293T", "T1 sequence (Q63604 32-821)": "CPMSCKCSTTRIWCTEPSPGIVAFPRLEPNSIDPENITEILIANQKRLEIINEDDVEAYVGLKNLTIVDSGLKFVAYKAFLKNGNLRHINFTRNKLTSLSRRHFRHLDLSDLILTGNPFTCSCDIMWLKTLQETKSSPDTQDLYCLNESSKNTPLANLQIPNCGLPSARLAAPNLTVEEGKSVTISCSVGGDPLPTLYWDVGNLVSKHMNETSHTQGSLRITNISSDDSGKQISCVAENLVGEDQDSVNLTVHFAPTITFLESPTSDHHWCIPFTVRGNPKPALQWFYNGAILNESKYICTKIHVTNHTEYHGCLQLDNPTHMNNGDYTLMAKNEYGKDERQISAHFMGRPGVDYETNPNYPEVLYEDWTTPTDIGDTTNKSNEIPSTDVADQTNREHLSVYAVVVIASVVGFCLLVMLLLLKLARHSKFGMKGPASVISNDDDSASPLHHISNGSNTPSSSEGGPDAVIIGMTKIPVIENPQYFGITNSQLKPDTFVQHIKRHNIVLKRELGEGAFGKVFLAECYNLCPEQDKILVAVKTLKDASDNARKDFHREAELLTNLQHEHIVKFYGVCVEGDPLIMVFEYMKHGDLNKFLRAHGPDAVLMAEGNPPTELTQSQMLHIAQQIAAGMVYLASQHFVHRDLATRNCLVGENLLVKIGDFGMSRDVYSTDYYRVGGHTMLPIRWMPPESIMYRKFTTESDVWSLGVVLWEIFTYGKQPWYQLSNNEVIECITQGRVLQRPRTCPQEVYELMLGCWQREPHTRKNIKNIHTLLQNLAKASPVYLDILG", "assay": "biochemical", "format": "binding"}, "[2]": {"test_system": "dendritic arbor complexity of neuronal cultures", "assay": "Dendritogenesis (Sholl analysis) in neuronal cultures (WT and Y433F^+/−)", "format": "cell-based, mouse", "conditions": "for Sholl analysis, Mean at distance from soma: fig 6h", "in_short": "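Some cultures were pretreated 10 min with TrkB.FC (200 ng ml^−1) or M100907 (100 nM), which stayed in the medium alongside cumulative psychedelic doses. Sholl analysis counted dendritic intersections every 5 μm from the soma.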"}, "[3]": {"conditions": "Y433F+/-:vehicle minus Y433F+/-:treatment"}}, "data": [{"molecule": "CN(C)CCc1c[nH]c2cccc(O)c12", "note": "[PSI, psilocin]", "values": [{"measurement": "6d: Mean (spinogenesis, spine density)", "setting": "[1]; WT neurons, vehicle mean 5.7", "result": 10.5}, {"measurement": "6d: Mean Diff. (vehicle vs. treatment), Bonferroni's multiple comparisons test", "setting": "[1]; WT:vehicle minus WT:treatment", "result": -4.8}, {"measurement": "6d: Mean (spinogenesis, spine density)", "setting": "[1]; Y433F+/- neurons, vehicle mean 6.55", "result": 7}, {"measurement": "6d: Mean Diff. (vehicle vs. treatment), Bonferroni's multiple comparisons test", "setting": "[1]; [3]", "result": -0.45}, {"measurement": "spine density", "setting": "[1]; cultures from WT mice, 24 h, 100 nM", "result": "increase spine density"}, {"measurement": "Ki", "setting": "TrkB", "result": "6.73 ± 3.05", "unit": "nM"}, {"measurement": "Bmax (best-fit, 1b)", "setting": "TrkB; competition with ^3H-LSD", "result": 100.9}, {"measurement": "h (best-fit, 1b)", "setting": "TrkB; competition with ^3H-LSD", "result": -0.492}, {"measurement": "affinity to TrkB relative to other antidepressants (fluoxetine, ketamine)", "setting": "TrkB; higher than other antidepressants", "result": "1,000 fold"}, {"measurement": "6g: Mean (dendritogenesis, Sholl analysis)", "setting": "[2]; WT neurons, vehicle mean 32.96", "result": 62.5}, {"measurement": "6g: Mean Diff. (vehicle vs. treatment), Bonferroni's multiple comparisons test", "setting": "[2]; WT:vehicle minus WT:treatment", "result": -29.54}, {"measurement": "6g: Mean (dendritogenesis, Sholl analysis)", "setting": "[2]; Y433F+/- neurons, vehicle mean 44.44", "result": 31.05}, {"measurement": "6g: Mean Diff. (vehicle vs. treatment), Bonferroni's multiple comparisons test", "setting": "[2]; [3]", "result": 13.39}, {"measurement": "dendritic arbor complexity", "setting": "[2]; cultures from WT mice", "result": "enhance dendritic arbor complexity"}, {"measurement": "dendritic arbor complexity", "setting": "[2]; cultures from Y433F^+/− mice", "result": "not Y433F^+/− mice"}, {"measurement": "Sholl analysis, Mean at distance from soma", "setting": "[2]; distance from soma 25 µm", "result": 3.05}, {"measurement": "Sholl analysis, Mean at distance from soma", "setting": "[2]; distance from soma 30 µm", "result": 2.75}, {"measurement": "Sholl analysis, Mean at distance from soma", "setting": "[2]; distance from soma 35 µm", "result": 2.15}, {"measurement": "Sholl analysis, Mean at distance from soma", "setting": "[2]; distance from soma 40 µm", "result": 1.55}, {"measurement": "Sholl analysis, Mean at distance from soma", "setting": "[2]; distance from soma 45 µm", "result": 1.35}, {"measurement": "Sholl analysis, Mean at distance from soma", "setting": "[2]; distance from soma 50 µm", "result": 1.3}, {"measurement": "Sholl analysis, Mean at distance from soma", "setting": "[2]; distance from soma 55 µm", "result": 0.95}, {"measurement": "Sholl analysis, Mean at distance from soma", "setting": "[2]; distance from soma 60 µm", "result": 0.8}, {"measurement": "Sholl analysis, Mean at distance from soma", "setting": "[2]; distance from soma 65 µm", "result": 0.75}, {"measurement": "Sholl analysis, Mean at distance from soma", "setting": "[2]; distance from soma 70 µm", "result": 0.7}, {"measurement": "Sholl analysis, Mean at distance from soma", "setting": "[2]; distance from soma 75 µm", "result": 0.55}, {"measurement": "Sholl analysis, Mean at distance from soma", "setting": "[2]; distance from soma 80 µm", "result": 0.45}, {"measurement": "Sholl analysis, Mean at distance from soma", "setting": "[2]; distance from soma 85 µm", "result": 0.45}, {"measurement": "Sholl analysis, Mean at distance from soma", "setting": "[2]; distance from soma 90 µm", "result": 0.4}, {"measurement": "Sholl analysis, Mean at distance from soma", "setting": "[2]; distance from soma 95 µm", "result": 0.65}, {"measurement": "Sholl analysis, Mean at distance from soma", "setting": "[2]; distance from soma 100 µm", "result": 0.55}, {"measurement": "6h: Mean (Sholl analysis)", "setting": "[2]; first 6h table (N as WT), distance from soma 10 µm", "result": 6}, {"measurement": "6h: Mean (Sholl analysis)", "setting": "[2]; first 6h table (N as WT), distance from soma 15 µm", "result": 7.15}, {"measurement": "6h: Mean (Sholl analysis)", "setting": "[2]; first 6h table (N as WT), distance from soma 20 µm", "result": 7.85}, {"measurement": "6h: Mean (Sholl analysis)", "setting": "[2]; first 6h table (N as WT), distance from soma 25 µm", "result": 6.65}, {"measurement": "6h: Mean (Sholl analysis)", "setting": "[2]; first 6h table (N as WT), distance from soma 30 µm", "result": 5.65}, {"measurement": "6h: Mean (Sholl analysis)", "setting": "[2]; first 6h table (N as WT), distance from soma 35 µm", "result": 4.5}, {"measurement": "6h: Mean (Sholl analysis)", "setting": "[2]; first 6h table (N as WT), distance from soma 40 µm", "result": 3.6}, {"measurement": "6h: Mean (Sholl analysis)", "setting": "[2]; first 6h table (N as WT), distance from soma 45 µm", "result": 2.75}, {"measurement": "6h: Mean (Sholl analysis)", "setting": "[2]; first 6h table (N as WT), distance from soma 50 µm", "result": 2.6}, {"measurement": "6h: Mean (Sholl analysis)", "setting": "[2]; first 6h table (N as WT), distance from soma 55 µm", "result": 2.5}, {"measurement": "6h: Mean (Sholl analysis)", "setting": "[2]; first 6h table (N as WT), distance from soma 60 µm", "result": 2.35}, {"measurement": "6h: Mean (Sholl analysis)", "setting": "[2]; first 6h table (N as WT), distance from soma 65 µm", "result": 1.75}, {"measurement": "6h: Mean (Sholl analysis)", "setting": "[2]; first 6h table (N as WT), distance from soma 70 µm", "result": 1.7}, {"measurement": "6h: Mean (Sholl analysis)", "setting": "[2]; first 6h table (N as WT), distance from soma 75 µm", "result": 1.35}, {"measurement": "6h: Mean (Sholl analysis)", "setting": "[2]; first 6h table (N as WT), distance from soma 80 µm", "result": 1.15}, {"measurement": "6h: Mean (Sholl analysis)", "setting": "[2]; first 6h table (N as WT), distance from soma 85 µm", "result": 1.1}, {"measurement": "6h: Mean (Sholl analysis)", "setting": "[2]; first 6h table (N as WT), distance from soma 90 µm", "result": 1.3}, {"measurement": "6h: Mean (Sholl analysis)", "setting": "[2]; first 6h table (N as WT), distance from soma 95 µm", "result": 1.05}, {"measurement": "6h: Mean (Sholl analysis)", "setting": "[2]; first 6h table (N as WT), distance from soma 100 µm", "result": 1.5}, {"measurement": "6h: Mean (Sholl analysis)", "setting": "[2]; second 6h table (N as Y433F), distance from soma 10 µm", "result": 4.8}, {"measurement": "6h: Mean (Sholl analysis)", "setting": "[2]; second 6h table (N as Y433F), distance from soma 15 µm", "result": 4.05}, {"measurement": "6h: Mean (Sholl analysis)", "setting": "[2]; second 6h table (N as Y433F), distance from soma 20 µm", "result": 3.8}]}]}
